Biological target: T1, P2Y10-Gα16 (Homo sapiens, UniProt O00398)
T1 construct: "P2Y10-Gα16"; fused on or other part: The promiscuous G-protein alpha subunit G alpha 16 (GNA15) is fused to the receptor; By the printed name order it probably sits at the C-terminus; It is a coupling handle and not part of the key
T1 sequence (O00398 whole entry, the tested form may be a part): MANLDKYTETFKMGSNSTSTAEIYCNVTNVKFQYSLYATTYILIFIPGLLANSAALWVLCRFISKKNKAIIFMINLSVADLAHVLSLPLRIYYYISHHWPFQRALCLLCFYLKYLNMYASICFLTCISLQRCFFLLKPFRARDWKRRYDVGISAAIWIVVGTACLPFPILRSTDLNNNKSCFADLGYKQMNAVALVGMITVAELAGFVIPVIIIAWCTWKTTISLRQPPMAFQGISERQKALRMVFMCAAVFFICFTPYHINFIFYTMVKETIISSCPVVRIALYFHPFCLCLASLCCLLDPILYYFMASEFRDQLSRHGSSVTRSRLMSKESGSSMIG
Test: not given
Details: induction of Ca2+ transients via P2Y10-Gα16; cited from earlier work
In the case of `CCCCCCCCCCCCC/C=C/[C@@H](O)[C@@H](N)COP(=O)(O)O` [Compound S1P, sphingosine 1-phosphate], the EC50 is given as 0.053 µM.
For Lysophosphatidic acid [LPA], the EC50 is given as 0.13 µM.

Biological target: LPA2 receptor (Homo sapiens, UniProt Q9HBW0)
Sequence (Q9HBW0 whole entry): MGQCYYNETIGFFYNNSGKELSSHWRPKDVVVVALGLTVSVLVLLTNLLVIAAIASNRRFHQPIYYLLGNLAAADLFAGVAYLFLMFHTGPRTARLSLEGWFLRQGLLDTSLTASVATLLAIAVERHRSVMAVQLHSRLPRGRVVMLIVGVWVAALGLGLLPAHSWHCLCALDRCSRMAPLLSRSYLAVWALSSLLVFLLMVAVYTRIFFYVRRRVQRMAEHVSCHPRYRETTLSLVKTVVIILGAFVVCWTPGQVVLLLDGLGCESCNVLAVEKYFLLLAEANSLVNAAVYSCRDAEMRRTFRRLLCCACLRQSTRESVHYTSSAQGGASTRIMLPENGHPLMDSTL
Test: LPA2R-calciumflux assay
Format: cell-based
Details: U2OS cells recombinant expressing LPA2R; LPA-induced intracellular calcium signal (FLIPR Tetra); 10 concentrations from 30 uM to 1 nM, 1% DMSO
From the text: Description of the LPA2R Assay
Cell Cultivation/Propagation
LPA2R-calciumflux Assay Protocol
The assay detects intra cellular calcium which is generated by cells upon activation of the LPA2 receptor by its ligand LPA. This transient calcium mobilisation can be monitored using a commercial calcium detection kit (e.g. from Molecular Devices). The main component of such a kit is a dye, which becomes fluorescent when calcium is present—a transient fluorescence signal after laddition of a ligand to a test well are the result. Readers like the FLIPR (from Molecular Devices) can be used to monitor such transient “Ca-flux” signals.
The signals are calculated according to peak maximum minus base line. Compounds which are antogonists of LPA lead to a decreased mobilisation of intracellular calcium and thus to a lower signal. The assay is performed in microplates (384 wells per plate).
The assay itself is run according to the following procedure: • 50 uL seed cells (10000 cells/well in DMEM buffer) • Incubate 24 h at 37° C., 10% CO2 • aspirate medium • 50 uL add calcium dye 1×HBSS/HEPES buffer • incubate 1 h at 37° C. (“loading”) • equilibrate 10 min at RT • 5 uL add compounds in HEPES buffer • shake 10 sec. @ 1000 rpm • incubate 15 min at RT • 20 uL add LPA (in the FLIPR Tetra) in KREBS-Puffer/BSA & measurement
The cells are seeded in DMEM buffer (DMEM, 10% FCS, 10 mM HEPES, 1% Pen/Strep).
Dye loading is done in HBSS/HEPES buffer (100 mL 10×HBSS+20 mL 1M HEPES+880 mL water, pH 7.4)
The LPA is added in Krebs/BSA buffer (120 mM NaCl, 5 mM KCl, 0.62 mM MgSO4, 1.8 mM CaCl2, 10 mM HEPES, 6 mM D(+)-Glucose, 0.2% BSA, pH 7.4).
The compounds are pre-diluted in HEPES buffer (20 mM, pH 7.4), whereby the final DMSO content in the assay is kept at 1%. The compounds are pre-diluted in order to generate dose response series on the microplates. The dose response series consist of 10 concentrations for each compound from 30 uM final to 1 nM final. From all compound wells the resulting signals are referred to control wells (located on each plate besides the compound wells) in terms of % activity.
[formula] From these % activity values—along with the corresponding compound concentrations—IC50 values are fitted for each compound using standard fitting programs such as Graphpad Prism. Here the method “log(inhibitor) vs. response—Variable slope” is used. Reader Settings (FLIPR Tetra) • ExcWLength:470—495 • Em.Wlength: 515—575 • Gain: 50 • Exp. Time: 0,4 • Exc.Intensity: 80 • READ with TF • First read interval: 1,00 s • Number of first reads: 240 • Reads before dispense: 10 • Second read interval: 1,00 s • Number of second reads: 0 • Save Images No
In the case of `O=C1C[C@@](O)(C(F)(F)F)c2c(-c3cccc(F)c3)n[nH]c2N1` [Compound 20, (−)-3-(3-Fluoro-phenyl)-4-hydroxy-4-trifluoromethyl-1,4,5,7-tetrahydro-pyrazolo[3,4-b]pyridin-6-one], the IC50 is reported as < 1 µM.
In the case of `O=C1CC(O)(C(F)(F)F)c2c(-c3cccc(C(F)(F)F)c3)n[nH]c2N1` (centres unmarked) [Compound 15, 4-Hydroxy-4-trifluoromethyl-3-(3-trifluoromethyl-phenyl)-1,4,5,7-tetrahydro-pyrazolo[3,4-b]pyridin-6-one], the IC50 is reported as < 1 µM.
For `O=C1CC(O)(C(F)(F)F)c2c(-c3ccccc3)nn(-c3ccccc3)c2N1` (centres unmarked) [Compound 19, 4-Hydroxy-1,3-diphenyl-4-trifluoromethyl-1,4,5,7-tetrahydro-pyrazolo[3,4-b]pyridin-6-one], the IC50 was > 10 µM.
Molecule `COc1cccc(-c2n[nH]c3c2C(O)(C(F)(F)F)CC(=O)N3)c1` (centres unmarked) [Compound 32, 4-Hydroxy-3-(3-methoxy-phenyl)-4-trifluoromethyl-1,4,5,7-tetrahydro-pyrazolo[3,4-b]pyridin-6-one] has an IC50 of 1 to 10 µM.
For `O=C1C[C@@](O)(C(F)(F)F)c2c(-c3ccccc3)n[nH]c2N1` [Compound 10, (−)-4-Hydroxy-3-phenyl-4-trifluoromethyl-1,4,5,7-tetrahydro-pyrazolo[3,4-b]pyridin-6-one], the IC50 was < 1 µM.
For `O=C1Nc2[nH]nc(-c3ccccc3)c2C(O)(C(F)(F)F)C1CCO` (centres unmarked) [Compound 26, 4-Hydroxy-5-(2-hydroxy-ethyl)-3-phenyl-4-trifluoromethyl-1,4,5,7-tetrahydro-pyrazolo[3,4-b]pyridin-6-one], the IC50 was > 10 µM.
For `O=C1CC(O)(C(F)(F)F)c2c(C3CC3)n[nH]c2N1` (centres unmarked) [Compound 16, 3-Cyclopropyl-4-hydroxy-4-trifluoromethyl-1,4,5,7-tetrahydro-pyrazolo[3,4-b]pyridin-6-one], the IC50 was > 10 µM.
For `O=C1CC(O)(c2cc(C(F)(F)F)cc(C(F)(F)F)c2)c2c(-c3ccccc3)n[nH]c2N1` (centres unmarked) [Compound 35, 4-(3,5-Bis-trifluoromethyl-phenyl)-4-hydroxy-3-phenyl-1,4,5,7-tetrahydro-pyrazolo[3,4-b]pyridin-6-one], the IC50 was > 10 µM.
For `O=C1CC(O)(C(F)(F)F)c2c(-c3cccs3)n[nH]c2N1` (centres unmarked) [Compound 8, 4-Hydroxy-3-thiophen-2-yl-4-trifluoromethyl-1,4,5,7-tetrahydro-pyrazolo[3,4-b]pyridin-6-one], the IC50 was < 1 µM.
For `O=C1CC(O)(C(F)(F)F)c2c(-c3ccco3)n[nH]c2N1` (centres unmarked) [Compound 30, 3-Furan-2-yl-4-hydroxy-4-trifluoromethyl-1,4,5,7-tetrahydro-pyrazolo[3,4-b]pyridin-6-one], the IC50 was > 10 µM.
For `Cn1nc(-c2ccc(Cl)cc2)c2c1NC(=O)CC2(O)C(F)(F)F` (centres unmarked) [Compound 18, 3(4-Chloro-phenyl)-4-hydroxy-1-methyl-4-trifluoromethyl-1,4,5,7-tetrahydro-pyrazolo[3,4-b]pyridin-6-one], the IC50 was > 10 µM.
With `O=C1C[C@](O)(C(F)(F)F)c2c(-c3ccccc3)n[nH]c2N1` [Compound 11, (+)-4-Hydroxy-3-phenyl-4-trifluoromethyl-1,4,5,7-tetrahydro-pyrazolo[3,4-b]pyridin-6-one] the IC50 was > 10 µM.
For `CCN1C(=O)CC(O)(C(F)(F)F)c2c(-c3ccccc3)n[nH]c21` (centres unmarked) [Compound 34, 7-Ethyl-4-hydroxy-3-phenyl-4-trifluoromethyl-1,4,5,7-tetrahydro-pyrazolo[3,4-b]pyridin-6-one], the IC50 was > 10 µM.
For `O=C1CC(O)(C(F)(F)F)c2c(-c3ccncc3)n[nH]c2N1` (centres unmarked) [Compound 22, 4-Hydroxy-3-pyridin-4-yl-4-trifluoromethyl-1,4,5,7-tetrahydro-pyrazolo[3,4-b]pyridin-6-one], the IC50 was < 1 µM.
For `O=C1CC(O)(C(F)(F)F)c2c(Cc3ccccc3)n[nH]c2N1` (centres unmarked) [Compound 28, 3-Benzyl-4-hydroxy-4-trifluoromethyl-1,4,5,7-tetrahydro-pyrazolo[3,4-b]pyridin-6-one], the IC50 was > 10 µM.
For `CCC1C(=O)Nc2[nH]nc(-c3ccccc3)c2C1(O)C(F)(F)F` (centres unmarked) [Compound 25, 4-Hydroxy-5-ethyl-3-phenyl-4-trifluoromethyl-1,4,5,7-tetrahydro-pyrazolo[3,4-b]pyridin-6-one], the IC50 was > 10 µM.
`CC1C(=O)Nc2[nH]nc(-c3ccccc3)c2C1(O)C(F)(F)F` (centres unmarked) [Compound 24, 4-Hydroxy-5-methyl-3-phenyl-4-trifluoromethyl-1,4,5,7-tetrahydro-pyrazolo[3,4-b]pyridin-6-one] gave an IC50 of 1 to 10 µM.
With `Cc1c(-c2n[nH]c3c2C(O)(C(F)(F)F)CC(=O)N3)cnn1C` (centres unmarked) [Compound 33, 3-(1,5-Dimethyl-1H-pyrazol-4-yl)-4-hydroxy-4-trifluoromethyl-1,4,5,7-tetrahydro-pyrazolo[3,4-b]pyridin-6-one] the IC50 was 1 to 10 µM.

From patent US9067938B2, “Pyrazolopyridinone derivatives as LPA receptor antagonists” (Merck Patent GmbH, priority 2010, dated 2015)
